Source: patent publication US9481674B1, “Dihydropyrrolopyridine inhibitors of ROR-gamma” (Vitae Pharmaceuticals, Inc., priority 2016, dated 2016)

Columns and labels:
[1] = target: T1, hERG potassium ion channel (Homo sapiens, UniProt Q12809); assay: hERG Assay (Assay 4); type: cell-based; conditions: HEK293 cells stably transfected with hERG cDNA, pH 7.4, comparator compounds, Table 4, compound at 3 μM
T1 construct: expressed in transfected cells; host or cells: HEK293
Protocol: Compounds of the invention were tested in vitro against the hERG (human ether-à-go-go-related gene) potassium ion channel (a surrogate for IKr, the rapidly activating delayed rectifier cardiac potassium ion channel).
The buffer was HEPES-buffered physiological saline (HB-PS) solution composed of: 137 mM NaCl, 4.0 mM KCl, 1.8 mM CaCl2, 1 mM MgCl2, 10 mM HEPES, 10 mM glucose, pH adjusted to 7.4 with NaOH, and 0.3% DMSO. Chemicals used in solution preparation were purchased from Sigma-Aldrich (St. Louis, Mo.), unless otherwise noted, and were of ACS reagent grade purity or higher.
HEK (human embryonic kidney) 293 cells were stably transfected with hERG cDNA.
For the patch clamp experiment, onset and steady state inhibition of hERG potassium current was measured using a pulse pattern with fixed amplitudes (depolarization: +20 mV for 2 s; repolarization: −50 mV for 2 s) repeated at 10 s intervals from a holding potential of −80 mV. Peak tail current was measured during the 2 s step to −50 mV. A steady state was maintained for at least 30 seconds before applying compound or positive control (cisapride). Peak tail currents were measured until a new steady state was achieved.
Data acquisition and analyses were performed using the suite of pCLAMP® (ver. 8.2) programs (MDS Analytical Technologies, Sunnyvale, Calif.). […]

IL-17A production = assay: Human Whole Blood Assay (Assay 3); type: cell-based; conditions: comparator compounds, Table 4, IL-17A, read-out: 50% Human Whole Blood Assay IC50, nM^B (Assay 3)
Protocol: Human Whole Blood Assay (Assay 3)
Compounds of the invention were tested in the human whole blood assay to measure their effects on IL-17A production as determined by cytokine secretion into 50% blood/media supernatant. Mixtures of sodium heparinized whole blood (isolated from healthy human donors) and the T cell activator CytoStim, in the presence or absence of compound, were plated in sterilized, tissue culture-treated 24-well plates. Specifically, the mixtures in each well were as follows: (1) 500 μL of whole blood, (2) 250 μL of compound diluted into RPMI-1640 media containing 10% HyClone™ FCS (Thermo Fisher Scientific, Waltham, Mass.), Gibco® Pen/Strep and Gibco® NEAA (Life Technologies, Grand Island, N.Y.), and (3) 250 μL of CytoStim (Miltenyi Biotech, Germany) diluted to a final concentration of 10 μL/mL in complete cell culture medium.
IL-17A cytokine expression was determined using 25 μL of the transferred supernatant diluted with 25 μL of Diluent 43 from the Human IL-17A V-PLEX™ kit (cat. # K151RFD-4, Meso Scale Discovery, Rockville, Md.). The assay was performed according to the manufacturer's instructions using included reagents. The IL-17A V-PLEX™ plates were read using the Meso Scale Discovery Imager (Model 1200).

T1 sequence (Q12809 whole entry): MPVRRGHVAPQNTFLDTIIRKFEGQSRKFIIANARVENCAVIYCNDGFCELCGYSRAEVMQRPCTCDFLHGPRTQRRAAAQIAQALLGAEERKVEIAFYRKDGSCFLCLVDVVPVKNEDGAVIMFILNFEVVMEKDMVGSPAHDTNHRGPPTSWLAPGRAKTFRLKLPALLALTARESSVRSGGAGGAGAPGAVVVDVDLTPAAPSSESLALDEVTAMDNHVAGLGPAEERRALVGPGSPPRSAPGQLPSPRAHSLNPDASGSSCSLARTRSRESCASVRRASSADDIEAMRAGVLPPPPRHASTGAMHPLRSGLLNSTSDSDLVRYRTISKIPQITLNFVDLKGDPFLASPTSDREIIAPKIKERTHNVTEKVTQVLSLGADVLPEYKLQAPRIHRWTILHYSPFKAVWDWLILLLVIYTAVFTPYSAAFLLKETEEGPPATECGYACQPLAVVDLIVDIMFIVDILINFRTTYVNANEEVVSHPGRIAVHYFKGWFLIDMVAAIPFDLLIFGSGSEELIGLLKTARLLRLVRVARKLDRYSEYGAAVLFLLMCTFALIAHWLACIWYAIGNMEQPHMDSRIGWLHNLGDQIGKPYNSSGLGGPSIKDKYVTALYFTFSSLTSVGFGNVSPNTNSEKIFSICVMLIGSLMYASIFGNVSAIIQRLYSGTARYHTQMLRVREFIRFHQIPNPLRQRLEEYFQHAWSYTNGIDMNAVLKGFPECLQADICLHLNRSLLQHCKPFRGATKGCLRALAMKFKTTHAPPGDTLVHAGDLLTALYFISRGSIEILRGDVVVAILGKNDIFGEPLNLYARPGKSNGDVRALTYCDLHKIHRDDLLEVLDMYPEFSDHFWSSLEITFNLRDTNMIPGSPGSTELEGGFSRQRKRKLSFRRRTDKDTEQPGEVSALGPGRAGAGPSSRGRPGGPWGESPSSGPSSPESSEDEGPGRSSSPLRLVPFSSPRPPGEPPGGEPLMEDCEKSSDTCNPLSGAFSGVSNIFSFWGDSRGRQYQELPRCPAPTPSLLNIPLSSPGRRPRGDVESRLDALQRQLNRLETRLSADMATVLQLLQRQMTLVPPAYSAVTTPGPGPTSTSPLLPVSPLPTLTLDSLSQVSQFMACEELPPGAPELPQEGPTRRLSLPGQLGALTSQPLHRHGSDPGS

CCS(=O)(=O)c1ccc(CNC(=O)c2cnc3c(c2)CN(C[C@H]2CC[C@H](C(F)(F)F)CC2)[C@H]3C(C)C)cc1
inhibition at 3 µM [1]: 57%

CCS(=O)(=O)c1ccc(CNC(=O)c2cnc3c(c2)CN(C[C@H]2CC[C@H](C(F)(F)F)CC2)[C@H]3C(C)C)nc1 [reference compound]
inhibition at 3 µM [1]: 45.4%
IC50 (IL-17A production): > 200 nM
